Experimental data taken from US12605653B2, “Anionic switchable hydrophilicity solvents” (QUEEN'S UNIVERSITY AT KINGSTON, priority 2022, dated 2026).

How the values were obtained:
[1] = binary mixtures: worse actor; cited from earlier work
[2] = binary mixtures: worse actor; cited from earlier work; remark: listed apart in the source
[3] = specific target organ toxicity, single exposure; binary mixtures: worse actor; cited from earlier work
[4] = test system: fish; conditions: 96 hr LC50 (fish); binary mixtures: worse actor; cited from earlier work
[5] = NOEC or ECx; binary mixtures: worse actor; cited from earlier work
[6] = binary mixtures: score of the worse actor of the two; cited from earlier work
[7] = binary mixtures: score of the worse actor of the two; cited from earlier work; remark: listed apart in the source
[8] = Evaluation of the switching behaviour of ASHS systems (carboxylic acid/base/water) under air and 1 bar of CO2; format: physicochemical; conditions: for Behaviour of the system after CO2 addition / pH under 1 bar of CO2 / pH under air: 20° C.; for Phase behaviour upon addition of 1 bar of CO2: base Jeffamine D-230, TEA, DMEA or 3DMAP, base:acid mole ratio 1:1, water:acid mass ratio 15:1 and other ratios; for Phase behaviour upon addition of CO2 / Phases under air: substoichiometric aqueous NaOH, 0.6 to 0.7 equivalents of base
Description: Base solutions were prepared by combining the desired base and water (mass for components measured in an analytical scale) into either a 10 or 25 mL graduated cylinder (containing a magnetic stir bar) depending on the final volume of the mixture obtained. The carboxylic acid (mass measured using an analytical balance prior to addition) being studied was added to the base solution, and the mixture was mixed with the help of a magnetic stir plate. The amount of base and water used were selected based on the acid:base:water ratio desired. Experiments were carried out using stoichiometric and substoichiometric amounts of the base relative to the number of mols of acid added. In addition, the quantity of water used was adjusted based on the acid:water mass ratio desired. A typical experiment would contain 1 g of the carboxylic acid; between 0.4 and 1 mol of base per mol of acid; and a water mass varying from 1 to 9.5 g.
During a typical experiment, CO2 would be added for approximately 2 h at atmospheric pressure. At the end of the 2 h, the sparge tube would be removed, and the number and volume of the phases obtained would be recorded. The pH was once again recorded. For mixtures with only 1 phase, the pH of that phase was recorded. While for mixtures with 2 phases, the pH of the aqueous phase was recorded.
In the systems in which the base:acid mole ratio and the water:acid mass ratio were being studied, a slight modification from this method was used. The acid being tested (1 g) was mixed with 1 g of water and the required amount of NaOH (based on the acid:base molar ratio desired) to prepare the mixture. […]
The base solution was then added to the carboxylic acid, and the next steps followed the procedure previously described.

[9] = binary mixtures: score of the worse actor of the two; cited from earlier work; remark: listed apart in the source
[10] = Switching behaviour of ASHS systems under elevated pressures of CO2; format: physicochemical; conditions: EHA:NaOH:H2O combinations that did not become biphasic upon 1 bar of CO2
Description: The sight gauge was kept at a constant temperature (20° C.) in a water bath. The solutions were maintained under stirring due to a magnetic stir bar controlled by a magnetic stir plate. To maximize the stirring, the vessel was placed on its side (horizontal position). The mixture was then pressurized to 10 bar of CO2 in the sight gauge. In order to determine the volume of the phases obtained, measurements of the height of the water-rich and the carboxylic acid phase were obtained using a cathetometer while the vessel was in a vertical position. The relationship between height and internal volume on the sight gauge is known. The vessel was then slowly depressurized. The phases were collected using a glass pipette.

[11] = base 3DMAP, base:acid mole ratio 0.45:1, H2O:acid mass ratio 2.5:1
[12] = base DMEA, base:acid mole ratio 0.50:1, H2O:acid mass ratio 2.5:1
[13] = base Jeffamine D-230 (two moles acid per mole D-230), H2O:acid mass ratio 12:1, 1 bar CO2, partial = acid recovered smaller than mass added
[14] = base Jeffamine D-230 (two moles acid per mole D-230), H2O:acid mass ratio 12:1
[15] = base Jeffamine D-230 (two moles acid per mole D-230), H2O:acid mass ratio 15:1, 1 bar CO2, partial = acid recovered smaller than mass added
[16] = base Jeffamine D-230 (two moles acid per mole D-230), H2O:acid mass ratio 15:1
[17] = base MDEA, base:acid mole ratio 0.50:1, H2O:acid mass ratio 2.5:1
[18] = base NaOH, 2:1 H2O:acid mass ratio, 1 bar CO2, narrow range of base:acid ratio
[19] = base TEA, base:acid mole ratio 0.40:1, H2O:acid mass ratio 2.5:1
[20] = base 3DMAP, base:acid mole ratio 0.50:1, H2O:acid mass ratio 2.5:1
[21] = base DMEA, base:acid mole ratio 0.55:1, H2O:acid mass ratio 2.5:1
[22] = base MDEA, base:acid mole ratio 0.55:1, H2O:acid mass ratio 2.5:1
[23] = base TEA, MDEA, DMEA or 3-DMAP, base:acid mol ratio 1:1, H2O:acid mass ratio 1:1
[24] = base TEA, MDEA, DMEA or 3-DMAP, base:acid mol ratio 1:1, H2O:acid mass ratio 2:1
[25] = base TEA, MDEA, DMEA or 3-DMAP, base:acid mol ratio 1:1, H2O:acid mass ratio 6:1
[26] = base TEA, MDEA, DMEA or 3-DMAP, base:acid mol ratio 1:1, H2O:acid mass ratio 15:1
[27] = base TEA, base:acid mole ratio 0.55:1, H2O:acid mass ratio 2.5:1

CCCCN(CCO)CCCC [Bu2NCH2CH2OH, N,N-dibutylethanolamine]
Skin irritation, GHS category [1]: 1C | Eye irritation, GHS category [2]: 1 | Organ toxicity, GHS category [3]: 3 | Acute aquatic toxicity, GHS category [4]: 3 (category 3 (H402) means 10 < 96 hr LC50 (fish) ≤ 100 mg/L) | Chronic aquatic toxicity, GHS category [5]: 3 (category 3 (H412) means 0.1 < NOEC or ECx ≤ 1) | Acute toxicity (oral), GHS category [6]: 4 (category 4 (H302) means 300 < LD50 ≤ 2000 mg/kg) | Acute toxicity (dermal), GHS category [7]: 4 (category 4 (H312) means 1000 < LD50 ≤ 2000 mg/kg)

O=C(O)CCC1CCCC1 [CPPA, 3-cyclopentylpropionic acid]
maximum polymer (EPS) loading attained in the carboxylic acid (CPPA-EPS mixture, limited by viscosity, 60° C.): 50 wt % | Behaviour of the system after CO2 addition ([8]; base 3DMAP, base:acid mole ratio 0.45:1, H2O:acid mass ratio 2.5:1, 1 bar CO2, threshold 50 vol % recovered): Phase separation above 50 | pH under 1 bar of CO2 [8, 11]: 6.02 | pH under air [8, 11]: 6.06 | Behaviour of the system after CO2 addition ([8]; base DMEA, base:acid mole ratio 0.50:1, H2O:acid mass ratio 2.5:1, 1 bar CO2): No phase separation | pH under 1 bar of CO2 [8, 12]: 6.25 | pH under air [8, 12]: 6.22 | Behaviour of the system after CO2 addition [8, 13]: No phase separation | pH under 1 bar of CO2 [8, 14]: 6.55 | pH under air [8, 14]: 7.00 | Behaviour of the system after CO2 addition [8, 15]: No phase separation | pH under 1 bar of CO2 [8, 16]: 6.45 | pH under air [8, 16]: 6.94 | Phase behaviour upon addition of 1 bar of CO2 ([8]; MDEA): no phase separation was observed | Behaviour of the system after CO2 addition ([8]; base MDEA, base:acid mole ratio 0.50:1, H2O:acid mass ratio 2.5:1, 1 bar CO2): No phase separation | pH under 1 bar of CO2 [8, 17]: 6.23 | pH under air [8, 17]: 6.16 | Behaviour of the system [8, 18]: successful switchable behaviour | Behaviour of the system ([8]; base NaOH, carboxylic acid:H2O mass ratio 1:2.5, carboxylic acid:NaOH mol ratio 1:0.8): Switchable | Behaviour of the system after CO2 addition ([8]; base TEA, base:acid mole ratio 0.40:1, H2O:acid mass ratio 2.5:1, 1 bar CO2): No phase separation | pH under 1 bar of CO2 [8, 19]: 6.04 | pH under air [8, 19]: 5.98 | Phase behaviour upon addition of CO2 [8]: phase separation was observed | Phases under air [8]: one phase

CN(C)C1CCCCC1 [CyNMe2]
Acute toxicity (inhalation), GHS category [9]: 3 (category 3 (H331) means 2 < LC50 ≤ 10 mg/L) | Acute aquatic toxicity, GHS category [4]: 1 (Category 1 (H400) means 96 hr LC50 (fish) ≤ 1.0 mg/L) | Acute toxicity (oral), GHS category [6]: 3 (Category 3 (H301) means 50 < LD50 ≤ 300 mg/kg) | Acute toxicity (dermal), GHS category [7]: 3 (Category 3 (H311) means 200 < LD50 ≤ 1000 mg/kg)

CCCCC(CC)C(=O)O (centres unmarked) [EHA, 2-ethylhexanoic acid]
maximum EPS loading that still allows the next steps (EHA as solvent): 5 wt % | Behaviour upon the addition of 10 bar of CO2 [10]: successful switchable behaviour | pH before the addition of CO2 ([8]; 0.8:1 NaOH:EHA mole ratio, 3:1 H2O:EHA mass ratio): 7.2 | Behaviour of the system ([8]; 0.8:1 NaOH:EHA mole ratio, 3:1 H2O:EHA mass ratio, 1 bar CO2): did not present a switchable behaviour | pH before the addition of CO2 ([8]; 0.9:1 NaOH:EHA mole ratio, 1:1 H2O:EHA mass ratio): 7.5 | pH before the addition of CO2 ([8]; 0.9:1 NaOH:EHA mole ratio, 3:1 H2O:EHA mass ratio): 7.2 | pH before the addition of CO2 ([8]; 0.9:1 NaOH:EHA mole ratio, 4:1 H2O:EHA mass ratio): 7.1 | pH before the addition of CO2 ([8]; 0.9:1 NaOH:EHA mole ratio, 5:1 H2O:EHA mass ratio): 7.2 | Behaviour of the system ([8]; 0.9:1 NaOH:EHA mole ratio, 5:1 H2O:EHA mass ratio, 1 bar CO2): presented a switchable behaviour | Behaviour of the system ([8]; 0.9:1 NaOH:EHA mole ratio, H2O:EHA mass ratio from 1:1 to 3:1, 1 bar of CO2): do not present a switchable behaviour | Behaviour of the system ([8]; 0.9:1 NaOH:EHA mole ratio, extra water beyond 4:1 H2O:EHA mass ratio): become biphasic under air | pH under air, lowest value once extra water is added ([8]; 0.9:1 NaOH:EHA mole ratio, more water than 4:1, pH decreases from 7.1): 6.6 | Behaviour of the system ([8]; 2.5:1 H2O:EHA mass ratio, 0.65 NaOH:EHA mol ratio, 1 bar CO2): switchable behaviour | Behaviour of the system ([8]; 2.5:1 H2O:EHA mass ratio, 0.70 NaOH:EHA mol ratio, 1 bar CO2): remains monophasic after CO2 addition | Behaviour of the system after CO2 addition ([8]; base 3DMAP, base:acid mole ratio 0.50:1, H2O:acid mass ratio 2.5:1, 1 bar CO2, threshold 50 vol % recovered): Phase separation above 50 | pH under 1 bar of CO2 [8, 20]: 6.64 | pH under air [8, 20]: 6.53 | Behaviour of the system after CO2 addition ([8]; base DMEA, base:acid mole ratio 0.55:1, H2O:acid mass ratio 2.5:1, 1 bar CO2, threshold 50 vol % recovered): Phase separation above 50 | pH under 1 bar of CO2 [8, 21]: 6.69 | pH under air [8, 21]: 6.57 | Behaviour of the system after CO2 addition [8, 13]: Partial phase separation | pH under 1 bar of CO2 [8, 14]: 6.94 | pH under air [8, 14]: 6.98 | Behaviour of the system after CO2 addition [8, 15]: Partial phase separation | pH under 1 bar of CO2 [8, 16]: 6.74 | pH under air [8, 16]: 8.34 | Phase behaviour upon addition of 1 bar of CO2 ([8]; MDEA): no phase separation was observed | Behaviour of the system after CO2 addition ([8]; base MDEA, base:acid mole ratio 0.55:1, H2O:acid mass ratio 2.5:1, 1 bar CO2, threshold 50 vol % recovered): No phase separation | pH under 1 bar of CO2 [8, 22]: 6.61 | pH under air [8, 22]: 6.50 | Behaviour of the system ([8]; base NH4OH, 2:1 H2O:acid mass ratio, 1 bar CO2): phase switchable behaviour was not observed | Behaviour of the system [8, 18]: successful switchable behaviour | Behaviour of the system ([8]; base NaOH, carboxylic acid:H2O mass ratio 1:2.5, carboxylic acid:NaOH mol ratio 1:0.6): Switchable | Behaviour of the system after CO2 addition ([8]; base TEA, MDEA, DMEA or 3-DMAP, base:acid mol ratio 1:1, H2O:acid mass ratio 1:1, 1 bar CO2): No phase separation | pH under 1 bar of CO2 [8, 23]: 7.50-8.05 | pH under air [8, 23]: 7.50-8.30 | Behaviour of the system after CO2 addition ([8]; base TEA, MDEA, DMEA or 3-DMAP, base:acid mol ratio 1:1, H2O:acid mass ratio 2:1, 1 bar CO2): No phase separation | pH under 1 bar of CO2 [8, 24]: 7.20-7.60 | pH under air [8, 24]: 8.00-8.15 | Behaviour of the system after CO2 addition ([8]; base TEA, MDEA, DMEA or 3-DMAP, base:acid mol ratio 1:1, H2O:acid mass ratio 6:1, 1 bar CO2): No phase separation | pH under 1 bar of CO2 [8, 25]: 6.20-6.70 | pH under air [8, 25]: 7.50-8.10 | Behaviour of the system after CO2 addition ([8]; base TEA, MDEA, DMEA or 3-DMAP, base:acid mol ratio 1:1, H2O:acid mass ratio 15:1, 1 bar CO2): No phase separation | pH under 1 bar of CO2 [8, 26]: 6.60-6.80 | pH under air [8, 26]: 6.80-7.90 | Behaviour of the system after CO2 addition ([8]; base TEA, base:acid mole ratio 0.55:1, H2O:acid mass ratio 2.5:1, 1 bar CO2): No phase separation | pH under 1 bar of CO2 [8, 27]: 6.53 | pH under air [8, 27]: 6.48 | Behaviour of the system ([8]; base pyridine, 2:1 H2O:acid mass ratio): the acid remains as a separate phase under air | Phase behaviour upon addition of CO2 [8]: phase separation was observed | Phases under air [8]: one phase
